From EP0908457B1, “3-(1,2-benzisothiazol- and isoxazol-5-Y1)-2,4(1H,3H)-pyrimidinedione or thione and 3-(1,2-benzisothiazol- and isoxazol-5-y1)-4(3H)-pyrimidinone or thione herbicidal agents” (BASF AKTIENGESELLSCHAFT, priority 1997, dated 1999)

Key:
[1] = system: Monochoria vaginalis, Presl.; assay: Preemergence weed control under flooded paddy conditions, MOOVA (Monochoria); assay type: in vivo; conditions: flooded paddy, rated three to four weeks after treatment
[2] = system: Sagittaria pygmaea, L.; assay: Preemergence weed control under flooded paddy conditions, SAGPY (Arrowhead (Pygmaea)); assay type: in vivo; conditions: flooded paddy, rated three to four weeks after treatment
[3] = system: Echinochloa oryzoides (Ard.) Fritsch.; assay: Preemergence weed control under flooded paddy conditions, ECHORC (Watergrass (Calif.)); assay type: in vivo; conditions: flooded paddy, rated three to four weeks after treatment
[4] = system: Cyperus iria; assay: Preemergence weed control under flooded paddy conditions, CYPIR (Rice Flatsedge); assay type: in vivo; conditions: flooded paddy, rated three to four weeks after treatment
[5] = system: Oryza sativa, (L.) Tebonnet; assay: Rice tolerance to post-transplant applications under flooded paddy conditions (Example 187), ORYSAT (Rice, Tebonnet); conditions: rated three to four weeks after treatment
[6] = Rate 0.0320 kg/ha, preemergence weeds
[7] = Rate 0.0620 kg/ha, preemergence weeds
[8] = Rate 0.1250 kg/ha, preemergence weeds
[9] = Rate 0.2500 kg/ha, preemergence weeds
[10] = Rate 0.0320 kg/ha, preemergence
[11] = Rate 0.0620 kg/ha, preemergence
[12] = Rate 0.1250 kg/ha, preemergence
[13] = Rate 0.2500 kg/ha, preemergence
[14] = Rate 0.5000 kg/ha, preemergence
Further: meaning of each grade not given here.

CNC.Cn1c(C(F)(F)F)cc(=O)n(-c2ccc3snc(CSCC(=O)O)c3c2)c1=O [Example 299, Acetic acid, {{{5-[3,6-dihydro-3-methyl-2,6-dioxo-4-(trifluoromethyl)-1(2H)-pyrimidinyl)-1,2-benzisothiazol-3-yl}methyl}thio}-, dimethylamine salt]
herbicidal effect rating, MOOVA [1, 6]: 7.0
herbicidal effect rating, MOOVA [1, 7]: 9.0
herbicidal effect rating, MOOVA [1, 8]: 9.0
herbicidal effect rating, MOOVA [1, 9]: 9.0
herbicidal effect rating, SAGPY [2, 6]: 0.0
herbicidal effect rating, SAGPY [2, 7]: 0.0
herbicidal effect rating, SAGPY [2, 8]: 3.0
herbicidal effect rating, SAGPY [2, 9]: 7.0
herbicidal effect rating, ECHORC [3, 6]: 0.0
herbicidal effect rating, ECHORC [3, 7]: 0.0
herbicidal effect rating, ECHORC [3, 8]: 2.0
herbicidal effect rating, ECHORC [3, 9]: 5.0
herbicidal effect rating, CYPIR [4, 6]: 3.0
herbicidal effect rating, CYPIR [4, 7]: 7.0
herbicidal effect rating, CYPIR [4, 8]: 9.0
herbicidal effect rating, CYPIR [4, 9]: 9.0
herbicidal effect rating ORYSAT ([5]; Rate 0.0320 kg/ha): 0.0
herbicidal effect rating ORYSAT ([5]; Rate 0.0620 kg/ha): 0.0
herbicidal effect rating ORYSAT ([5]; Rate 0.1250 kg/ha): 3.0
herbicidal effect rating ORYSAT ([5]; Rate 0.2500 kg/ha): 5.0

Cn1c(C(F)(F)F)cc(=O)n(-c2ccc3snc(C(Cl)Br)c3c2)c1=O (stereo not shown) [Example 300, 2,4(1H,3H)-Pyrimidinedione, 3-[3-(bromochloromethyl)-1,2-benzisothiazol-5-yl]-1-methyl-6-(trifluoromethyl)-]
herbicidal effect rating, MOOVA [1, 6]: 9.0
herbicidal effect rating, MOOVA [1, 7]: 9.0
herbicidal effect rating, MOOVA [1, 8]: 9.0
herbicidal effect rating, MOOVA [1, 9]: 9.0
herbicidal effect rating, SAGPY [2, 6]: 2.0
herbicidal effect rating, SAGPY [2, 7]: 5.0
herbicidal effect rating, SAGPY [2, 8]: 6.0
herbicidal effect rating, SAGPY [2, 9]: 7.0
herbicidal effect rating, ECHORC [3, 6]: 3.0
herbicidal effect rating, ECHORC [3, 7]: 6.0
herbicidal effect rating, ECHORC [3, 8]: 7.0
herbicidal effect rating, ECHORC [3, 9]: 9.0
herbicidal effect rating, CYPIR [4, 6]: 3.0
herbicidal effect rating, CYPIR [4, 7]: 6.0
herbicidal effect rating, CYPIR [4, 8]: 9.0
herbicidal effect rating, CYPIR [4, 9]: 9.0
herbicidal effect rating ORYSAT ([5]; Rate 0.0320 kg/ha): 2.0
herbicidal effect rating ORYSAT ([5]; Rate 0.0620 kg/ha): 4.0
herbicidal effect rating ORYSAT ([5]; Rate 0.1250 kg/ha): 4.0
herbicidal effect rating ORYSAT ([5]; Rate 0.2500 kg/ha): 5.0

Cn1c(C(F)(F)F)cc(=O)n(-c2ccc3snc(C(=O)Oc4ccc(F)cc4)c3c2)c1=O [Example 320, 1,2-Benzisothiazole-3-carboxylic acid, 5-[3,6-dihydro-3-methyl-2,6-dioxo-4-(trifluoromethyl)-1(2H)-pyrimidinyl]-, p-fluorophenyl ester]
herbicidal effect rating, MOOVA [1, 6]: 0.0
herbicidal effect rating, MOOVA [1, 7]: 0.0
herbicidal effect rating, MOOVA [1, 8]: 3.0
herbicidal effect rating, MOOVA [1, 9]: 9.0
herbicidal effect rating, SAGPY [2, 6]: 1.0
herbicidal effect rating, SAGPY [2, 7]: 2.5
herbicidal effect rating, SAGPY [2, 8]: 2.5
herbicidal effect rating, SAGPY [2, 9]: 5.0
herbicidal effect rating, ECHORC [3, 6]: 0.0
herbicidal effect rating, ECHORC [3, 7]: 0.0
herbicidal effect rating, ECHORC [3, 8]: 0.0
herbicidal effect rating, ECHORC [3, 9]: 2.5
herbicidal effect rating, CYPIR [4, 6]: 0.0
herbicidal effect rating, CYPIR [4, 7]: 2.0
herbicidal effect rating, CYPIR [4, 8]: 5.5
herbicidal effect rating, CYPIR [4, 9]: 8.0
herbicidal effect rating ORYSAT ([5]; Rate 0.0320 kg/ha): 1.5
herbicidal effect rating ORYSAT ([5]; Rate 0.0620 kg/ha): 2.0
herbicidal effect rating ORYSAT ([5]; Rate 0.1250 kg/ha): 2.0
herbicidal effect rating ORYSAT ([5]; Rate 0.2500 kg/ha): 2.5

COc1ccc(O)c(-c2nsc3ccc(-n4c(=O)cc(C(F)(F)F)n(C)c4=O)cc23)c1 [Example 361, 2,4(1H,3H)-Pyrimidinedione, 3-[3-(2-hydroxy-5-methoxyphenyl)-1,2-benzisothiazol-5-yl]-1-methyl-6-(trifluoromethyl)-]
herbicidal effect rating, MOOVA [1, 10]: 9.0
herbicidal effect rating, MOOVA [1, 11]: 9.0
herbicidal effect rating, MOOVA [1, 12]: 9.0
herbicidal effect rating, MOOVA [1, 13]: 9.0
herbicidal effect rating, MOOVA [1, 14]: 9.0
herbicidal effect rating, SAGPY [2, 10]: 4.0
herbicidal effect rating, SAGPY [2, 11]: 4.0
herbicidal effect rating, SAGPY [2, 12]: 5.0
herbicidal effect rating, SAGPY [2, 13]: 5.0
herbicidal effect rating, SAGPY [2, 14]: 5.0
herbicidal effect rating, ECHORC [3, 10]: 0.0
herbicidal effect rating, ECHORC [3, 11]: 0.0
herbicidal effect rating, ECHORC [3, 12]: 0.0
herbicidal effect rating, ECHORC [3, 13]: 4.0
herbicidal effect rating, ECHORC [3, 14]: 4.0
herbicidal effect rating, CYPIR [4, 10]: 0.0
herbicidal effect rating, CYPIR [4, 11]: 0.0
herbicidal effect rating, CYPIR [4, 12]: 0.0
herbicidal effect rating, CYPIR [4, 13]: 6.0
herbicidal effect rating, CYPIR [4, 14]: 6.0
herbicidal effect rating ORYSAT ([5]; Rate 0.0320 kg/ha): 0.0
herbicidal effect rating ORYSAT ([5]; Rate 0.0620 kg/ha): 0.0
herbicidal effect rating ORYSAT ([5]; Rate 0.1250 kg/ha): 4.0
herbicidal effect rating ORYSAT ([5]; Rate 0.2500 kg/ha): 5.0
herbicidal effect rating ORYSAT ([5]; Rate 0.5000 kg/ha): 3.0
